Measurements taken from patent publication US20040029965A1, “Formulations for reducing or eliminating toxicity of enviromental hormones containing ursodeoxycholic acid” (priority 2000, published 2004).
Marks after values point to notes of the source that are not given here.

Columns and labels:
C57B1/6J mice [1] = assay: Electron microscopy of testes (cellular microstructures); type: in vivo; conditions: TCDD 27.5 μg/kg + 0.5% by weight of UDCA; FIG. 10
Method: (§1) 2,3,7,8-tetrachlorodibenzo-p-dioxin (TCDD) dissolved in toluene (purity of 95% or more as a result of gas chromatography analysis), manufactured by Chem. Services Inc. in USA, was volatilized with nitrogen to obtain powder. The obtained powder was dissolved in a mixed solvent containing acetone and corn oil with a volume ratio of 1:6. The resulting solution each containing 110, 27.5 and 6.9 μg/kg of TCDD was subcutaneously injected to mice at a volume of 5 ml per body weight. […] The mice were supplied with the feed from 10 days before (pre-administration) to 60 days after administration of TCDD (post-administration).
Upon completion of the experiment for 60 days, the experimental animals were fasted for 24 hours and anesthetized with ether. Then, they were abdominally incised and blood was gathered from abdominal vena cava. They were sacrificed by the release of blood. Liver, kidneys, testes and epididymides were extracted and all the extracted organs were weighed. Only the testes were separately kept and observed under optical and electron microscopes. For biochemical finding test, serum was separated from blood with a centrifuge and the separated serum was analyzed with an automated blood biochemical analyzer, Dimension (Dupont, USA). Blood was put to another blood gathering bottle and then, analyzed with an automated blood cell analyzer, Celldyn (Abbott, USA). […]

C57B1/6J mice [2] = assay: Hematological changes in mice by a single subcutaneous injection of TCDD; type: in vivo; design: NEU / LYM / PLT: unit not given here
Method: Male C57B1/6J mice of 5 weeks old having the average weight of 18-22 g which had been bred in CRJ (Charles River in Japan) were purchased and used in this example as experimental animals. Those mice were acclimated under the constant breeding condition, i.e. the temperature of 24±1° C., the humidity of 60±10% and the light and darkness cycle of 12 hours, for one week and thereafter, utilized in the experiment.
as §1
Upon completion of the experiment for 60 days, the experimental animals were fasted for 24 hours and anesthetized with ether. Then, they were abdominally incised and blood was gathered from abdominal vena cava. They were sacrificed by the release of blood. Liver, kidneys, testes and epididymides were extracted and all the extracted organs were weighed. Only the testes were separately kept and observed under optical and electron microscopes. For biochemical finding test, serum was separated from blood with a centrifuge and the separated serum was analyzed with an automated blood biochemical analyzer, Dimension (Dupont, USA). Blood was put to another blood gathering bottle and then, analyzed with an automated blood cell analyzer, Celldyn (Abbott, USA).
The results are expressed as Mean±Standard Deviation values. For statistical analysis of the body weight, feed and water uptake, biochemical findings, hematological findings and the weight of organ in an acute toxicity test, verification was performed by one way analysis of variance (ANOVA) in case of equal distribution. In case significance was recognized in ANOVA, the Student's t-test was performed in the levels of p<0.05 and p<0.01.
For hematological findings, white blood cell (WBC), neutrophil (NEU), lymphocyte (LYM), monocyte (MONO), eosinophil (EOS), basophil (BASO) and red blood cell (RBC) counts, and hemoglobin concentration (HGB), hematocrit (HCT), mean cell volume (MCV), mean corpuscular hemoglobin (MCH), mean corpuscular hemoglobin concentration (MCHC), red blood cell distribution width (RDW) and platelet count (PLT) were measured and the results are as follows.

[3] = TCDD 6.9 μg/kg + UDCA 0.125 wt %
[4] = TCDD 6.9 μg/kg + UDCA 0.25 wt %
[5] = TCDD 27.5 μg/kg + UDCA 0.125 wt %
[6] = TCDD 27.5 μg/kg + UDCA 0.25 wt %

C[C@H](CCC(=O)O)[C@H]1CC[C@H]2[C@@H]3[C@@H](O)C[C@@H]4C[C@H](O)CC[C@]4(C)[C@H]3CC[C@]12C [UDCA, 3α, 7β-dihydroxy-5β-cholanoic acid]
heads of sperms, electron microphotograph (C57B1/6J mice [1]): Normal shapes of sperm heads were retained | BASO (C57B1/6J mice [2]; [3]): 0.12 ± 0.07 10^3 | EOS (C57B1/6J mice [2]; [3]): 0.004 ± 0.005 10^3 | HCT (C57B1/6J mice [2]; [3]): 44.61 ± 1.14% | HGB (C57B1/6J mice [2]; [3]): 14.35 ± 0.37 g/dL | LYM (C57B1/6J mice [2]; [3]): 5.06 ± 1.70 10^3 | MCH (C57B1/6J mice [2]; [3]): 14.87 ± 0.22 pg | MCHC (C57B1/6J mice [2]; [3]): 32.18 ± 0.43 g/dL | MCV (C57B1/6J mice [2]; [3]): 46.18 ± 0.55 fL | MONO (C57B1/6J mice [2]; [3]): 0.05 ± 0.06 10^3 | NEU (C57B1/6J mice [2]; [3]): 0.32 ± 0.13 10^3 | PLT (C57B1/6J mice [2]; [3]): 1117.7 ± 88.65 10^3 | RBC (C57B1/6J mice [2]; [3]): 9.66 ± 0.24 10^6 | RDW (C57B1/6J mice [2]; [3]): 20.17 ± 1.07% | WBC (C57B1/6J mice [2]; [3]): 5.55 ± 1.91 10^3 | BASO (C57B1/6J mice [2]; [4]): 0.09 ± 0.04 10^3 | EOS (C57B1/6J mice [2]; [4]): 0.003 ± 0.002 10^3 | HCT (C57B1/6J mice [2]; [4]): 44.77 ± 1.57% | HGB (C57B1/6J mice [2]; [4]): 14.16 ± 0.44 g/dL | LYM (C57B1/6J mice [2]; [4]): 5.17 ± 1.49 10^3 | MCH (C57B1/6J mice [2]; [4]): 15.04 ± 0.25 pg | MCHC (C57B1/6J mice [2]; [4]): 31.63 ± 0.58 g/dL | MCV (C57B1/6J mice [2]; [4]): 47.56 ± 0.81 fL | MONO (C57B1/6J mice [2]; [4]): 0.04 ± 0.02 10^3 | NEU (C57B1/6J mice [2]; [4]): 0.28 ± 0.07 10^3 | PLT (C57B1/6J mice [2]; [4]): 1141.22 ± 67.79 10^3 | RBC (C57B1/6J mice [2]; [4]): 9.42 ± 0.37 10^6 | RDW (C57B1/6J mice [2]; [4]): 19.73 ± 0.91% | WBC (C57B1/6J mice [2]; [4]): 5.68 ± 1.50 10^3 | BASO (C57B1/6J mice [2]; TCDD 6.9 μg/kg + UDCA 0.5 wt %): 0.10 ± 0.06 10^3 | EOS (C57B1/6J mice [2]; TCDD 6.9 μg/kg + UDCA 0.5 wt %): 0.002 ± 0.002 10^3 | HCT (C57B1/6J mice [2]; TCDD 6.9 μg/kg + UDCA 0.5 wt %): 45.35 ± 0.93% | HGB (C57B1/6J mice [2]; TCDD 6.9 μg/kg + UDCA 0.5 wt %): 14.47 ± 0.29 g/dL | LYM (C57B1/6J mice [2]; TCDD 6.9 μg/kg + UDCA 0.5 wt %): 5.12 ± 1.13 10^3 | MCH (C57B1/6J mice [2]; TCDD 6.9 μg/kg + UDCA 0.5 wt %): 14.98 ± 0.19 pg | MCHC (C57B1/6J mice [2]; TCDD 6.9 μg/kg + UDCA 0.5 wt %): 31.87 ± 0.41 g/dL | MCV (C57B1/6J mice [2]; TCDD 6.9 μg/kg + UDCA 0.5 wt %): 47.08 ± 0.63 fL | MONO (C57B1/6J mice [2]; TCDD 6.9 μg/kg + UDCA 0.5 wt %): 0.04 ± 0.03 10^3 | NEU (C57B1/6J mice [2]; TCDD 6.9 μg/kg + UDCA 0.5 wt %): 0.34 ± 0.11 10^3 | PLT (C57B1/6J mice [2]; TCDD 6.9 μg/kg + UDCA 0.5 wt %): 1112.89 ± 76.53 10^3 | RBC (C57B1/6J mice [2]; TCDD 6.9 μg/kg + UDCA 0.5 wt %): 9.64 ± 0.26 10^6 | RDW (C57B1/6J mice [2]; TCDD 6.9 μg/kg + UDCA 0.5 wt %): 20.19 ± 0.72% | WBC (C57B1/6J mice [2]; TCDD 6.9 μg/kg + UDCA 0.5 wt %): 5.76 ± 1.13 10^3 | BASO (C57B1/6J mice [2]; [5]): 0.09 ± 0.04 10^3 | EOS (C57B1/6J mice [2]; [5]): 0.002 ± 0.003 10^3 | HCT (C57B1/6J mice [2]; [5]): 43.77 ± 1.37 % | HGB (C57B1/6J mice [2]; [5]): 14.64 ± 0.67 g/dL | LYM (C57B1/6J mice [2]; [5]): 2.06 ± 0.81 10^3 | MCH (C57B1/6J mice [2]; [5]): 15.32 ± 0.39 pg | MCHC (C57B1/6J mice [2]; [5]): 33.65 ± 1.04 g/dL | MCV (C57B1/6J mice [2]; [5]): 45.51 ± 0.35 fL | MONO (C57B1/6J mice [2]; [5]): 0.02 ± 0.01 10^3 | NEU (C57B1/6J mice [2]; [5]): 0.34 ± 0.10## 10^3 | PLT (C57B1/6J mice [2]; [5]): 1172.44 ± 80.58## 10^3 | RBC (C57B1/6J mice [2]; [5]): 9.61 ± 0.29 10^6 | RDW (C57B1/6J mice [2]; [5]): 20.08 ± 1.20% | WBC (C57B1/6J mice [2]; [5]): 3.69 ± 0.72 10^3 | BASO (C57B1/6J mice [2]; [6]): 0.18 ± 0.07 10^3 | EOS (C57B1/6J mice [2]; [6]): 0.008 ± 0.007 10^3 | HCT (C57B1/6J mice [2]; [6]): 43.65 ± 1.24 % | HGB (C57B1/6J mice [2]; [6]): 14.23 ± 0.55 g/dL | LYM (C57B1/6J mice [2]; [6]): 2.99 ± 1.06## 10^3 | MCH (C57B1/6J mice [2]; [6]): 15.01 ± 0.44 pg
